Results taken from patent publication US12252472B1, “Barbituric acid derivatives, their preparation and use thereof as leukocyte transmigration inhibitors and for treating inflammatory diseases, autoimmune diseases and cancer” (BAR-ILAN UNIVERSITY, priority 2017, dated 2025).

Assays:
C57BL/6J mice = assay: MOG35-55/CFA-induced experimental autoimmune encephalomyelitis (EAE); assay type: in vivo, mouse; settings: 15 mg/kg SC q3w
Protocol: Female 7-8 weeks old C57BL/6J mice were immunized with an emulsion of MOG35-55 in CFA according to standard protocol, followed by administration of pertussis toxin (PTX) in PBS. After the onset of EAE (9 days), mice were assigned by rolling enrollment to the groups one at a time as they show the first signs of EAE (paralysis score 0.5-1). Treatment group was administered with Formula 2 at 15 mg/kg dose at q3w regiment by SC injections, mock treated (vehicle) control group was administered with similar volume as a treated group. Body weight of animals was determined prior to the experiment and the administered volume of Formula 2 formulation was adjusted according to the body weight. During the experiment, mice body weight and paralysis clinical score was monitored daily.
Mice from all groups were euthanized with isoflurane 24 hours post last dose administration. Two-way ANOVA statistical analysis was performed.

[1] = test system: primary human monocytes on TNF-alpha-activated HUVECs; assay: Shear flow assay: monocyte adhesion and transmigration on TNFα-activated HUVECs; assay type: cell-based
Source text: A flow assay that allows detailed analysis of individual leukocyte interactions with endothelial cells (ECs), described in Bradfield et al. (Bradfield et al., 2016, PloS One, July 21; 11(7); Bradfield et al., 2007, Blood. October 1; 110(7):2545-55) was used for evaluation of the biological effects of the compounds according to the invention. This method allows the determination of the possible effects of the compounds on three major phases in leukocyte migration: the capture of free non-bound leukocytes by endothelium, migration of leukocytes on the endothelium surface, and transendothelial migration (transmigration) of human leukocytes through the HUVECs layer. Post transmigrational events can also be monitored by tracking individual leukocytes. […] Human umbilical vein endothelial cells (HUVECs) were cultivated in the plastic channel of the flow chamber, and human leukocyte were flowed over them using a calibrated pump, allowing monocyte capture, adhesion and migration to be monitored.
Human umbilical vein endothelial cells (HUVEC) were isolated by collagenase treatment of umbilical veins as previously described (Wall, R. T., et al., Factors influencing endothelial cell proliferation in vitro. J Cell Physiol, 1978. 96(2): p. 203-13) and maintained in M199 containing 20% fetal calf serum (FCS), 15 μg/mL endothelial cell growth supplement (Upstate Biotechnology, Lake Placid, NY), 100 μg/mL heparin, 50 μM hydrocortisone, and 10 μg/mL vitamin C. Cells were cultured up to a maximum of passage 5.
Peripheral blood mononuclear cells (PBMCs) were first isolated from blood of healthy donors followed by monocyte purification using a monocyte isolation kit (Miltenyi Biotec, Bergisch Gladbach, Germany). Purity and activity of monocytes were controlled by flow cytometry by labelling with anti-CD14 and anti-CD62L. Only populations of 90% or more double positive cells were used.
Flow assays were conducted as described in a previous study (Bradfield, P. F., et al., JAM-C regulates unidirectional monocyte transendothelial migration in inflammation. Blood, 2007. 110(7): p. 2545-55). HUVECs were cultured at 1×10^5 cells/slide on Ibidi 6-chamber slides (80606; Ibidi) before treatment with TNFα (500 U/mL) for 6-10 hours. An individual chamber outlet was then attached to a calibrated pump (74 900; Cole Partner, Vernon Hills, IL) and flow was generated by perfusing wash buffer (M199 with 0.15% BSA) or a monocyte suspension (2.5×10^6 cells/mL) over the HUVEC monolayer. The flow rate was representative of shear rates in small venules (0.05 Pa). Observations made using phase-contrast microscopy (Model: Axiovert 100; Objective: 20×/0.3 NA air; Carl Zeiss) were recorded using a high-resolution camera (D70; Nikon, Zurich, Switzerland). Individual images were recorded every 30 seconds with Nikon capture software (v4.2) and compiled into movie sequences using Adobe Photoshop (CS6) and Image J (v1.5d), allowing analysis of individual monocytes over large areas. The tested compounds, e.g. compounds of the general Formula (I), were maintained at the specified concentration in all wash buffers throughout the course of the experiment. The compounds were preincubated separately on both HUVECs and monocytes 15 minutes prior to flow co-culture. HUVEC monolayers were washed for 10 minutes prior to a compound wash-in step to allow for this preincubation period. The monocyte suspension was then perfused over HUVECs for 4 minutes followed by 20 to 60 minutes with wash buffer. Time-lapse recording was started upon monocyte first-contact with the monolayer. Monocyte adhesion data are presented as the total number of monocytes per unit field. Transmigration events are presented as a percentage of total monocytes captured from flow per unit field. All experiments were carried out using quadruplicate fields and are presented as a mean value (±SEM).
A timeline is shown to represent the positioning and timing of an individual monocyte during movie analysis (marked ‘Timeline’). […]

DBA/1 mice = assay: Collagen induced arthritis (CIA) model; assay type: in vivo, mouse
Protocol: Male DBA/lOlaHsd mice (7-8 weeks of age) were injected with CII (Type II collagen)+CFA (complete Frennd's adjuvant) emulsion on Day 0 (S.C.) to persuade collagen induced arthritis (CIA). On Day 21 the animals receive the same amount of the emulsion as a booster. Twice between Days 0 and 18 after immunization (before enrollment begins), both hind paws of all mice were measured using calipers to establish baseline values for paw thickness. On Day 22 mice were enrolled into groups when they first shown paw swelling and treatment was initiated. A working formulation of compound of Formula 2 was administered by IP injections at 15 mg/kg dose at q3w regiment. Mock treated (vehicle) control group was administered IP with the same volume and regiment as a treatment group. Administration was performed at a constant volume dosage based on individual body weight. The severity of CIA was monitored daily. The CIA scoring is on the scale of 0 to 16 (0 to 4 for each paw, adding the scores for all 4 paws). On day 43 (24 hours post last dose administration) all paws thickness was measured and mice were euthanized. All limbs from each mouse were placed in individual labeled tubes, fixed in 4% buffered formalin, paraffin embedded and sectioned. Histological score was assessed using hematoxylin and eosin (H&E) stained sections. Joints were scored for inflammation, cartilage damage, pannus formation, and bone resorption on a scale of 0 to 3 for each readout. Two-way ANOVA statistical analysis was performed.

human B-lymphoma cells = assay: B-lymphoma homing assay in NOD.CB17-Prkdcscid/J mice; assay type: in vivo
Protocol: Effect on the homing of the B-lymphocytes was tested in a model of B-cell lymphoma. Compound of Formula 2 (7.5 μM) was injected IV, together with 10×10^6 human B-lymphoma cells. After one and a half hours the amount of B-lymphocytes was tested in different organs.

[2] = 7.5 μM IV together with 10×10^6 cells, after one and a half hours

With COC(=O)c1ccc(COc2c(C=C3C(=O)NC(=O)NC3=O)cccc2C(C)(C)C)cc1 [Formula 2, methyl 4-((2-(tert-butyl)-6-((2,4,6-trioxotetrahydropyrimidin-5(2H)-ylidene)methyl)phenoxy)methyl) benzoate] the body weight (C57BL/6J mice; by day 20) was “body weight recovery to that recorded on the onset of the disease”, the “paralysis score, decrease” value (C57BL/6J mice; by day 20) was “from 2 to 1.5” and the “body weight difference between treated and non-treated group” value (C57BL/6J mice; end of the experiment, average) was “approximately 4 g”. The paralysis score (C57BL/6J mice; starting from day 10) was “stable”, the monocyte transmigration ([1]; 30 μM) was “completely blocked” and the Monocyte adhesion ([1]; 30 μM, flow 0.05 Pa for 30 minutes) was “unaffected”. For the same molecule, the “Level of Transmigration Blockage (%)” value ([1]; 30 μM, monocytes on TNF-activated HUVECs under flow 0.05 Pa) was 100%, the IC50 ([1]; Homo sapiens, HUVEC, flow 0.05 Pa, n=3) was 2400 nM and the Emax ([1]; Homo sapiens, HUVEC, monocyte transmigration inhibition, read-out: maximal efficacy) was 48%. The “concentration below which not active on monocyte transmigration” value ([1]; dose response, 100 μM to 3 nM) was “below 300 nM”, the monocyte transmigration ([1]; dose response, 3 μM) was “partial blocking” and the monocyte transmigration ([1]; dose response, 30-100 μM) was “full blocking”. The “time of the maximal effect” value ([1]; monocyte transmigration, read at 10, 15, 20 and 25 minutes) was 20 min, the “Histological score of joints” value (DBA/1 mice; 15 mg/kg IP q3w) was “significantly reduced” and the “fore and hind limb thickness” value (DBA/1 mice; 15 mg/kg IP q3w, day 43) was “significantly reduced”. For the same molecule, the CIA score (DBA/1 mice; FIG. 23 legend: 15 mg/kg SC) was “therapeutic effect”, the “histological evaluation of talus and calcaneum joint sections” value (DBA/1 mice; representative sections, treated mouse (FIG. 25B)) was “No cartilage and bone and erosion and profuse infiltration of inflammatory cells are present” and the “homing of the cancer cells to the spleen and liver” value (human B-lymphoma cells; 7.5 μM IV) was “significantly blocked”. The “reduction of B-lymphocyte homing in liver” value (human B-lymphoma cells; [2]) was “around 33%” and the “reduction of B-lymphocyte homing in spleen” value (human B-lymphoma cells; [2]) was “around 22%”.
